Measured values taken from ChEMBL document CHEMBL1201862, “PubChem BioAssay data set” (2004).
The source made the active and inactive calls.

Experiments:
[1] = molecular target: T1, DNA repair protein RAD52 homolog (Homo sapiens, UniProt P43351); assay type: functional, biochemical
T1 sequence (P43351 whole entry): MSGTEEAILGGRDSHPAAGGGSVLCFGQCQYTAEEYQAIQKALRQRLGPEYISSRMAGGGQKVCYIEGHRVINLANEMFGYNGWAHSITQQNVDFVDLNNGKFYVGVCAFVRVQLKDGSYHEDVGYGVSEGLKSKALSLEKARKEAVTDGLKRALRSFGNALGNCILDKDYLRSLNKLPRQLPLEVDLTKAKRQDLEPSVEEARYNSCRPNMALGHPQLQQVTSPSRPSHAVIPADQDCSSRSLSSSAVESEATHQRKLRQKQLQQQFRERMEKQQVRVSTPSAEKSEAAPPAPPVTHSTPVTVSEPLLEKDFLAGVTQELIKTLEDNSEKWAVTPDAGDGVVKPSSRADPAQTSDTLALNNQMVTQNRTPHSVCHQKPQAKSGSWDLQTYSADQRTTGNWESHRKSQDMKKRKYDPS

[2] = molecular target: T2, High affinity choline transporter 1 (Homo sapiens, UniProt Q9GZV3); assay: CHT inhibitors, dose response, cell-based, 5-point CRC, membrane potential dye (AID 504840); assay type: functional
T2 sequence (Q9GZV3 whole entry): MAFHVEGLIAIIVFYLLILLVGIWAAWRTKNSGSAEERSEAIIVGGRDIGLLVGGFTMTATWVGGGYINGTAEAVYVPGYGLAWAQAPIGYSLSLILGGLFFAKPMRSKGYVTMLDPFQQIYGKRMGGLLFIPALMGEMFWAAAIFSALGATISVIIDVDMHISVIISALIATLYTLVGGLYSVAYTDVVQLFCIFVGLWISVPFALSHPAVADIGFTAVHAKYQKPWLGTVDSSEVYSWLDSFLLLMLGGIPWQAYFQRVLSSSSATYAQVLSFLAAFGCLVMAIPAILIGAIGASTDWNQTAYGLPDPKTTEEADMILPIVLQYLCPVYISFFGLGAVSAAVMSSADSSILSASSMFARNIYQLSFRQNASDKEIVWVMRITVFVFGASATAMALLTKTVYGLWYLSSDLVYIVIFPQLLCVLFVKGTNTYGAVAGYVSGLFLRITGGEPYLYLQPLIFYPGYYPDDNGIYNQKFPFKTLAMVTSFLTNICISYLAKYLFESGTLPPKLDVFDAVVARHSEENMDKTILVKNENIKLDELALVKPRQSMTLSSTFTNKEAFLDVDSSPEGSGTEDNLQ

cells [3] = assay type: functional, cell-based
cells [4] = assay type: functional, cell-based; remark: listed apart in the source
[5] = molecular target: T3, Trace amine-associated receptor 1 (Homo sapiens, UniProt Q96RJ0); assay: Counterscreen for agonists of the human trace amine associated receptor 1 (hTAAR1): Fluorescence-based cell-based high throughput dose response assay to identify hTAAR1 agonist that also desensitize TAAR1 receptor response.; assay type: functional
T3 sequence (Q96RJ0 whole entry): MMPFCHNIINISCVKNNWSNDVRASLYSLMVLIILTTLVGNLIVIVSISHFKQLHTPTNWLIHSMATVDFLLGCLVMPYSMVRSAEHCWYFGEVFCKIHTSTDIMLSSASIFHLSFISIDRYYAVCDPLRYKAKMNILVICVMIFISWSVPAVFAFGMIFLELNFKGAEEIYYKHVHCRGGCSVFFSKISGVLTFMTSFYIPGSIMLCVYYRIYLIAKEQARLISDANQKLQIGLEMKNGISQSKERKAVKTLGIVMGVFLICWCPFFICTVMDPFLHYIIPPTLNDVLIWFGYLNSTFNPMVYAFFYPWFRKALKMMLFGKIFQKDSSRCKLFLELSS

[6] = molecular target: T3, Trace amine-associated receptor 1; assay: Fluorescence-based cell-based high throughput dose response assay to identify agonists of the human trace amine associated receptor 1 (TAAR1).; assay type: functional
[7] = molecular target: T4, Probable nicotinate-nucleotide adenylyltransferase (Staphylococcus aureus (strain N315), UniProt P65502); assay type: functional, Staphylococcus aureus subsp. aureus N315;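 for IC50 Mean: confirmatory dose-response retesting of NadD inhibitor hits first found in an ultra-high-throughput screen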
T4 sequence (P65502 whole entry): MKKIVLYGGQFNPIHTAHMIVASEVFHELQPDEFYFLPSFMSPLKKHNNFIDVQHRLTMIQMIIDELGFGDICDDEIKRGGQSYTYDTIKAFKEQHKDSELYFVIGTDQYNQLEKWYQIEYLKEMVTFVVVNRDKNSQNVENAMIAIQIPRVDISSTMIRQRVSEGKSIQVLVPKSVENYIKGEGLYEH

[8] = molecular target: T4, Probable nicotinate-nucleotide adenylyltransferase; assay type: functional, Staphylococcus aureus subsp. aureus N315; details: read-out: IC50_Mean
[9] = molecular target: T5, Microphthalmia-associated transcription factor (Homo sapiens, UniProt O75030); assay: TRPM1 promoter luciferase signal decrease, dose response, MITF inhibitor project, cell-based, SK-MEL-5, cherry-picked, set 3 (AID 493073); assay type: functional
T5 sequence (O75030 whole entry): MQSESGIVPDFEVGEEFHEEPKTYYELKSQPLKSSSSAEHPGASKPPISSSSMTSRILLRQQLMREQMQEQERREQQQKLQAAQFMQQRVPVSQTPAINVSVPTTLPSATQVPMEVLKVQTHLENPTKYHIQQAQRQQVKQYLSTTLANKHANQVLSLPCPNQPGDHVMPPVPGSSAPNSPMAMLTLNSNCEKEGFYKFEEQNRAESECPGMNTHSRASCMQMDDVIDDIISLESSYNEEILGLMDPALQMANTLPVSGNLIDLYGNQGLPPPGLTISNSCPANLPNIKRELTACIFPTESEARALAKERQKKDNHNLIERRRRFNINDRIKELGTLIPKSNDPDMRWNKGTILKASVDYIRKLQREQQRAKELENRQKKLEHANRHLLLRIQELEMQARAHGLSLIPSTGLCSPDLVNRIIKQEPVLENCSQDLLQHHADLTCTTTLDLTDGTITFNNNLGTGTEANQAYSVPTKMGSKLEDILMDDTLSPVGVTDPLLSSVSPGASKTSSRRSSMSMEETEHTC

[10] = Shn3 3'UTR reporter inhibitors, dose response, cell-based, Clone20 osteoblasts, firefly luciferase, cherry-picked (AID 624132); assay type: functional;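 note: firefly luciferase luminescence from reporter carrying the Shn3 3'UTR in osteoblasts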
[11] = HepG2 cell cytotoxicity, dose response, cytotoxicity control for Shn3 inhibitor project, CellTiter-Glo, cherry-picked (AID 624134); assay type: functional, cell-based
[12] = molecular target: T6, Replicative DNA helicase DnaB (Mycobacterium tuberculosis, UniProt P9WMR3); assay: DnaB intein splicing inhibitors, dose response, biochemical, cell-free fluorescence (AID 449749); assay type: functional
T6 sequence (P9WMR3 whole entry): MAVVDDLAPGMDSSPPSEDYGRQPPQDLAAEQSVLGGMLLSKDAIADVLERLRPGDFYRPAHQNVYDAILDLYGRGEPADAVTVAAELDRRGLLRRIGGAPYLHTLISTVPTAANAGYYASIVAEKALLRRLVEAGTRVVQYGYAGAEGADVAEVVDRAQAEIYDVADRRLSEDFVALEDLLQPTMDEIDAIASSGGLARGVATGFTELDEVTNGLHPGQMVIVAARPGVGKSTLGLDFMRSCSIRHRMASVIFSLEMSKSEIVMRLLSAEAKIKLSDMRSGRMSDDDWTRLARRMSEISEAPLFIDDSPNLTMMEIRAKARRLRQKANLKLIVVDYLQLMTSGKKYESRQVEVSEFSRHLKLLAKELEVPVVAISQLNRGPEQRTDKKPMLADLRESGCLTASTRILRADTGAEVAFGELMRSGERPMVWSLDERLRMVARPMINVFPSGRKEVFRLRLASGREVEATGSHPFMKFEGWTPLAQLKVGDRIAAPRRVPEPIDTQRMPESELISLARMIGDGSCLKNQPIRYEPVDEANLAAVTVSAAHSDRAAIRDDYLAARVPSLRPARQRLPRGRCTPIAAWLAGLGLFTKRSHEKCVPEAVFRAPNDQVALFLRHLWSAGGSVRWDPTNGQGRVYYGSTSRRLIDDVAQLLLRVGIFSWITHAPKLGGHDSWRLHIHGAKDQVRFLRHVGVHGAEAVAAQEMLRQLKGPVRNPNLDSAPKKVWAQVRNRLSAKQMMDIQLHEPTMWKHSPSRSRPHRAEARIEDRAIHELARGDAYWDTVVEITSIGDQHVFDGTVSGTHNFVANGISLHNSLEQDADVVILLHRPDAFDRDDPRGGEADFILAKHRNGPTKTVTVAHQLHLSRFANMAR

[13] = Luminescence Cell-Based Dose Retest to Confirm Inhibitors of Cancer Stem Cells. [Related pubchem assays (depositor defined):AID2717, AID2721]; assay type: functional; details: Homo sapiens
cells [14] = assay type: functional, cell-based; remark: listed apart in the source
Protein RecA = molecular target: T7, Protein RecA (Mycobacterium tuberculosis, UniProt P9WHJ3); assay: Fluorescence Cell-Free Homogeneous Dose Retest to Identify Inhibitors of RecA-Intein Splicing Activity. [Related pubchem assays (depositor defined):AID2097, AID2223, AID489010, AID492950]; assay type: functional
T7 sequence (P9WHJ3 whole entry): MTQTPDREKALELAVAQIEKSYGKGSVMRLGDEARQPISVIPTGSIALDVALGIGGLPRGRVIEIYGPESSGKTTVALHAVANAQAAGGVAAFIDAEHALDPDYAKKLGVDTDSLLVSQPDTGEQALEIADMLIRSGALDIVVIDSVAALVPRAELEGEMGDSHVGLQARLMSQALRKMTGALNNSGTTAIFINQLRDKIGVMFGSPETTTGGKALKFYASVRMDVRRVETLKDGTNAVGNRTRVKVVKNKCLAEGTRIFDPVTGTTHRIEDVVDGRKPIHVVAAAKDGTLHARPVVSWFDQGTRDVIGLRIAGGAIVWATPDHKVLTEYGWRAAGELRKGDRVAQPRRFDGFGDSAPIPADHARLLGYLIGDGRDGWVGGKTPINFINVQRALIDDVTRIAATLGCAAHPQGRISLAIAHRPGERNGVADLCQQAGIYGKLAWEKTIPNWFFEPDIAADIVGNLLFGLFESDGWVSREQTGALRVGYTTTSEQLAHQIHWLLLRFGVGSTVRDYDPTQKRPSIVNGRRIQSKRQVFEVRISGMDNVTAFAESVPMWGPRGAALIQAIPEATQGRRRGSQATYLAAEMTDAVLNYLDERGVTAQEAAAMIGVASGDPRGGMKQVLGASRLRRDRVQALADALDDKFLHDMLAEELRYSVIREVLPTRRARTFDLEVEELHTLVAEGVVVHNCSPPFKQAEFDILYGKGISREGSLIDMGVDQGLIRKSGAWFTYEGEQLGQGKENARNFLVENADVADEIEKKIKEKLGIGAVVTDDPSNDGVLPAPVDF

cells [15] = assay type: functional, cell-based; remark: listed apart in the source
[16] = control 3'UTR Renilla luciferase suppression, dose response, counter-screen for Shn3 inhibitor project, cell-based, Clone20-Shn3RL, cherry-picked (AID 624133); assay type: functional
[17] = Fluorescence-based cell-based high throughput dose response assay for inhibitors of the interaction of nucleotide-binding oligomerization domain containing 2 (NOD2) and the receptor-interacting serine-threonine kinase 2 (RIPK2).; assay type: functional; details: Homo sapiens
[18] = molecular target: Photoreceptor-specific nuclear receptor (Homo sapiens, UniProt Q9Y5X4); assay type: functional, cell-based;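 note: CHO-S cells with Gal4-NCOR and VP16-NR2E3 two-hybrid luciferase reporter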
Sequence of Photoreceptor-specific nuclear receptor (Q9Y5X4 whole entry, the tested form may be a part): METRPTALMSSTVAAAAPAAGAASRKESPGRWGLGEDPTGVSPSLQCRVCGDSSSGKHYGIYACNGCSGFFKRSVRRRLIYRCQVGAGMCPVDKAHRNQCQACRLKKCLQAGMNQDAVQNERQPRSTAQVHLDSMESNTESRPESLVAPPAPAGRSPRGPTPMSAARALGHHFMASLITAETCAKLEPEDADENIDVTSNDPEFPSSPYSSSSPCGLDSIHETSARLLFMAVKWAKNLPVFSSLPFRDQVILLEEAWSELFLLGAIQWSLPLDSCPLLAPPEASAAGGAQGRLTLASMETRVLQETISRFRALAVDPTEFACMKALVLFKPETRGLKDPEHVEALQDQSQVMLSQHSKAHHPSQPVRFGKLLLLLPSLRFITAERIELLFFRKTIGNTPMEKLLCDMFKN

[19] = cytotoxicity in OVCAR8 ovarian cancer cells, dose response, PAX8 project, cell-based, plate reader, dry powder samples (AID 743197); assay type: functional; details: OVCAR-8
Paired box protein Pax-8 = Paired box protein Pax-8 (Homo sapiens, UniProt Q06710); assay: inhibitors of PAX8-driven TPO luciferase reporter, dose response, RMG-I cells, cherry-pick (AID 687027); assay type: functional, cell-based;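 note: luciferase reporter driven by Pax8 target thyroperoxidase promoter measured by SteadyGlo luminescence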
Sequence of Paired box protein Pax-8 (Q06710 whole entry): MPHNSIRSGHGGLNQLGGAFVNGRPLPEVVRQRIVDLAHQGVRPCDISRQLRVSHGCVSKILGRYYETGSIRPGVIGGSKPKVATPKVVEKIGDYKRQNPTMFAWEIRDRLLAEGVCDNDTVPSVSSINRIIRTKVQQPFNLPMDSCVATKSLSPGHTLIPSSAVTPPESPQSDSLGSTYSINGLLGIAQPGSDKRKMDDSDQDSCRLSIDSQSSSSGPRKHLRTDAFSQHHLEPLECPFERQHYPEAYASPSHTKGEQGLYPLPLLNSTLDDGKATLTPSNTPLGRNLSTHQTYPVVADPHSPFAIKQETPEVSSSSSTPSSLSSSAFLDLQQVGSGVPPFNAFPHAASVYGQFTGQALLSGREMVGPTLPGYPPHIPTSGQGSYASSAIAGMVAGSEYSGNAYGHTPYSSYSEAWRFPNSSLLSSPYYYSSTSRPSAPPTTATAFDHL

[20] = IGROV1 ovarian cancer cell cytotoxicity, dose response, PAX8 inhibitor project, plate reader, dry powder samples (AID 743043); assay type: functional, cell-based; details: IGROV-1
[21] = NIH:OVCAR-3 ovarian cancer cell cytotoxicity, dose response, PAX8 inhibitor project, plate reader, dry powder samples (AID 743044); assay type: functional, cell-based

Cc1cccc2sc(N(CCCN(C)C)C(=O)c3ccc(Cl)s3)nc12
AC50 [1]: 24.9 µM (active)

CCN1CCN(c2cc(C)c3cc(NC(=S)N4CCOCC4)ccc3n2)CC1
AC50 [1]: 22 µM (active) | IC50 [2]: 12.6 µM (active)

O=C(CC1Nc2ccccc2NC1=O)NCCc1ccccc1 (stereo not given)
EC50 (cells [3]): > 29.9 µM (inactive) | IC50 (cells [4]): > 29.9 µM (inactive) | IC50 [5]: 7.18 µM (active) | EC50 [6]: 2.27 µM (active)

O=C(O)/C=C/C(=O)NCCc1cccc(Cl)c1
EC50 (cells [3]): > 29.9 µM (inactive) | IC50 (cells [4]): > 29.9 µM (inactive) | IC50 [5]: 3.77 µM (active) | EC50 [6]: 0.7 µM (active)

Cc1ccc(Cn2nnc3c(O)nc(C4CCN(S(=O)(=O)c5ccc(S(=O)(=O)NC6CC6)cc5)CC4)nc32)cc1
IC50 [7]: 23.7 µM (active) | IC50 [8]: 54.4 µM (active)

COc1ccccc1-c1cc(C(F)(F)F)nc(S(C)(=O)=O)n1
AC50 [9]: 6.81 µM (active) | AC50 [10]: 4.06 µM (active) | AC50 [11]: 37.6 µM (active) | AC50 [12]: 5.35 µM (active) | AC50 [13]: 5.07 µM (active) | EC50 (cells [14]): > 350 µM (not active) | EC50 (Protein RecA): 10 µM (active) | EC50 (cells [15]): > 350 µM (not active) | AC50 [16]: 12.4 µM (active) | IC50 [17]: 3.63 µM (active)

O=C(C(=Cc1ccccc1)CN1CCCCC1)c1ccccc1
AC50 [10]: 3.18 µM (active) | AC50 [11]: 8.28 µM (active) | IC50 [18]: 3.73 µM (active) | AC50 [16]: 5.08 µM (active)

O=C(NCC1CCCO1)c1ccc(NC(=O)c2ccc(Br)cc2)cc1 (stereo not given)
EC50 (cells [3]): > 29.9 µM (inactive) | IC50 (cells [4]): > 29.9 µM (inactive) | IC50 [5]: > 29.9 µM (inactive) | EC50 [6]: 1.45 µM (active)

Cc1ccc(S(=O)(=O)Nc2ccc(Nc3nccn4c(-c5ccccc5Oc5ccccc5)cnc34)cc2)cc1
IC50 [7]: 10.4 µM (active) | IC50 [8]: 20.1 µM (active)

COc1ccc(CC2=NCCc3cc(OC)c(OC)cc32)cc1OC
AC50 [1]: 15.2 µM (active)

C[C@H]1CCCCO[C@H](CN(C)C(=O)Nc2ccc(C(F)(F)F)cc2)[C@@H](C)CN([C@@H](C)CO)C(=O)c2cc(NC(=O)Nc3ccccc3)ccc2O1
AC50 [19]: > 70 µM (inactive) | AC50 (Paired box protein Pax-8): 3.02 µM (active) | AC50 [20]: 59.3 µM (active) | AC50 [21]: 22.1 µM (active)

Cc1ccc(-n2nc(C)c(/C=N/c3ccc(S(=O)(=O)Nc4nccs4)cc3)c2O)cc1C
IC50 [7]: 4.08 µM (active) | IC50 [8]: 17.4 µM (active)
